Tested on: P388
Assay: Growth inhibition of mouse P388 cells
Assay type: functional
Details: read-out: ED50 (the source's name)

Compound	EC50 [µM]
CC(=O)O[C@H]1CC[C@H]2[C@@H]3CC[C@H]4Cc5nc6c(nc5C[C@]4(C)[C@H]3CC[C@]12C)C[C@@H]1CC[C@@H]2[C@H](CC[C@]3(C)[C@@H](OC(C)=O)CC[C@@H]23)[C@@]1(C)C6	91
C[C@]12Cc3nc4c(nc3C[C@@H]1CC[C@@H]1[C@@H]2CC[C@]2(C)C(=O)CC[C@@H]12)C[C@@]1(C)[C@@H](CC[C@@H]2[C@@H]1CC[C@]1(C)C(=O)CC[C@@H]21)C4	120
C[C@]12Cc3nc4c(nc3C[C@@H]1CC[C@@H]1[C@@H]2CC[C@]2(C)C(OS(=O)(=O)C(F)(F)F)=CC[C@@H]12)C[C@@]1(C)[C@@H](CC[C@@H]2[C@@H]1CC[C@]1(C)C(OS(=O)(=O)C(F)(F)F)=CC[C@@H]21)C4	42
C[C@]12Cc3nc4c(nc3C[C@@H]1CC[C@H]1[C@H]3CC=C(c5ccc(=O)oc5)[C@@]3(C)CC[C@@H]12)C[C@@]1(C)[C@@H](CC[C@H]2[C@H]3CC=C(c5ccc(=O)oc5)[C@@]3(C)CC[C@@H]21)C4	57
C[C@]12Cc3nc4c(nc3C[C@@H]1CC[C@@H]1[C@@H]2[C@@H](O)C[C@]2(C)/C(=C/[C@@H]3CC(=O)C=CO3)CC[C@@H]12)C[C@@]1(C)[C@@H](CC[C@@H]2[C@@H]1[C@@H](O)C[C@]1(C)/C(=C/[C@H]3CC(=O)C=CO3)CC[C@@H]21)C4	25
C[C@@H]1[C@]2(O[C@H]3C=C4[C@@H]5CC[C@H]6Cc7nc8c(nc7C[C@]6(C)[C@H]5C[C@@H](O)[C@]4(C)[C@]31O)C[C@@H]1CC[C@H]3C4=CC[C@@H]5[C@H](C)[C@@]6(OC[C@]45C(=O)C[C@@H]3[C@@]1(C)C8)OC(C)(C)C[C@H]6O)O[C@](C)(CO)C[C@H]2O [CEPHALOSTATIN 1]	0.001
C[C@@H]1[C@]2(O[C@H]3C=C4[C@@H]5CC[C@H]6Cc7nc8c(nc7C[C@]6(C)[C@H]5C[C@@H](O)[C@]4(C)[C@]31O)C[C@@H]1CC[C@H]3C4=C[C@@H]5O[C@]6(O[C@](C)(CO)C[C@H]6O)[C@@H](C)[C@]5(O)[C@@]4(C)[C@H](O)C[C@@H]3[C@@]1(C)C8)O[C@](C)(CO)C[C@H]2O [CEPHALOSTATIN 12]	0.076
